US10987346B2, “Iloperidone for the treatment of schizophrenia” (Vanda Pharmaceuticals, Inc., priority 2015, dated 2021)

Tests used:
[1] = tested on: patients with schizophrenia; assay: Randomized withdrawal relapse-prevention study (NCT01291511): efficacy assessments; format: in vivo, human; details: for Avg Time to Relapse or Impending Relapse: full analysis population; for Hazard Ratio (95% CI): favoring iloperidone over placebo
Experimental: Study subjects were adults with schizophrenia who were first treated with open-label iloperidone 12 mg/day given as 6 mg BID and then stabilized for a further 14-24 weeks with a flexible-dose iloperidone regimen as per investigator judgment ranging between 8-24 mg/day daily dose (given BID). Subjects who remained clinically stable for at least 12 weeks entered the relapse prevention phase and were randomized 1:1 to either continue on the same flexible dose regimen of iloperidone or to withdraw from iloperidone to matched placebo in a double-blinded fashion. Subjects were followed for up to 26 weeks and were withdrawn upon showing signs of relapse or impending relapse. A pre-defined unblinded interim analysis (IA) was conducted utilizing a group sequential testing procedure with an O'Brien-Fleming stopping boundary after 68 relapse or impending relapse events were observed. The primary outcome was time-to-relapse or impending relapse with event criteria defined in the protocol prior to first subject enrollment.
A randomized, double-blind, placebo-controlled, parallel-group study (ClinicalTrials.gov identifier NCT01291511) was performed at 27 centers in the United States, 15 in India and 24 in Ukraine.
The study consisted of five phases, the first four of which are shown in FIG. 1: screening phase, open-label titration phase, open-label stabilization phase, double-blind randomized withdrawal phase, and open-label extension phase (not shown).
In the Open-Label Titration Phase, patients received iloperidone 1, 2, 4, 6, 6, 6, 6 mg twice daily on Days 1 through 7, respectively. All previous antipsychotic treatments were discontinued prior to, or within 4 days, after the first day of iloperidone treatment. If the Investigator felt that it was necessary to titrate down the previous antipsychotic medication, the dose reduction was to be done within the first 4 days initiating iloperidone treatment (i.e., previous medication fully discontinued by Day 4).
In the Open-Label Stabilization Phase, patients received flexible doses of iloperidone 4 to 12 mg twice daily (8 to 24 mg/day). Patients needed to be clinically stable for a minimum of 12 weeks prior to randomization.
In the Double-Blind Randomized Withdrawal Phase, patients were randomized to receive iloperidone or placebo. Patients randomized to iloperidone initially took the dose level being received during the last 4 weeks of the Stabilization Phase and then treated with flexible doses of iloperidone 4 to 12 mg twice daily (8 to 24 mg/day).
Patients needed to be clinically stable throughout the last 12 weeks of the Stabilization Phase to be eligible for randomization. “Clinically stable” adult outpatients were defined as: meeting DSM-IV criteria for schizophrenia, and remaining stable following 12 weeks of open-label treatment with flexible doses of iloperidone, being on an established dose of iloperidone that remained unchanged due to efficacy during the 4 weeks prior to randomization; PANSS total score ≤70 and CGI-S score ≤4; Score of ≤4 on each of the following individual PANSS items: P1 (delusion), P2 (conceptual disorganization), P3 (hallucinatory behavior), P6 (suspiciousness/persecution), P7 (hostility), or G8 (uncooperativeness); and no hospitalization or increase in level of care to treat exacerbations.
The primary efficacy endpoint was time to relapse or impending relapse. Relapse or impending relapse during the double-blind relapse prevention phase was defined as any of the following: hospitalization (voluntary or involuntary) due to worsening of schizophrenia; an increase (worsening) of the PANSS total score of ≥30% from randomization, confirmed at a second visit conducted with 1 to 7 days later; patient had clinically significant suicidal, homicidal, or aggressive behavior; CGI-I score of ≥6 (much worse) or 7 (very much worse) after randomization; or an increase in iloperidone dose or in need of additional antipsychotic treatment. […]

[2] = tested on: patients with schizophrenia; assay: Randomized withdrawal relapse-prevention study (NCT01291511): safety assessments; format: in vivo, human; details: for Patients with at least 1 TEAE: Full Analysis Population; for Primary Reason for Discontinuation: Abnormal Laboratory Value(s) / Primary Reason for Discontinuation: Abnormal Test Procedure Result(s) / Primary Reason for Discontinuation: Adverse Event(s) / Primary Reason for Discontinuation: Death: interim analysis population, % of discontinued
Source text: Safety assessments included collection of adverse events (AEs), clinical laboratory evaluations, 12-lead electrocardiograms (ECGs), body weight, vital signs, Columbia Suicide Severity Rating Scale (C-SSRS), and movement disorder rating scales (Barnes Akathisia Scale [BAS], Abnormal Involuntary Movement Scale [AIMS], and Simpson Angus Scale [SAS]).
The safety population was defined for each study phase (Titration and Stabilization or Double-Blind Relapse Prevention). For each phase, the safety population included all patients who received at least 1 dose of study medication during the corresponding phase. Descriptive statistics by study phase for each of the safety assessments were calculated.

[3] = Double-Blind Relapse Prevention Phase, N = 151
[4] = Relapse Prevention Phase, end of the study
[5] = Titration and Stabilization Phase
[6] = Titration/Stabilization Phase, N = 629
[7] = end of Titration and Stabilization Phase

Compound: COc1cc(C(C)=O)ccc1OCCCN1CCC(c2noc3cc(F)ccc23)CC1 [iloperidone]
- Avg Time to Relapse or Impending Relapse ([1]; 8 mg/d, n=18): <30 days
- Avg Time to Relapse or Impending Relapse ([1]; 12 mg/d, n=58): >120 days
- Avg Time to Relapse or Impending Relapse ([1]; 20 mg/d, n=14): >120 days
- Average Time to Relapse ([1]; Final (FAS)): 140 days
- Relapse Rate ([1]; Final (FAS) (N = 151)): 17.9%
- Hazard Ratio (95% CI) ([1]; Final (FAS)): 5.2
- Hazard Ratio (95% CI) ([1]; Final (FAS), listed as Iloperidone): 5.2 (3.2, 8.4)
- Relapse Rate ([1]; Interim Analysis Population (N = 97)): 20.4%
- Hazard Ratio (95% CI) ([1]; Interim Analysis Population, Cox regression): 4.7
- Hazard Ratio (95% CI) ([1]; Interim Analysis Population, Cox regression, listed as Iloperidone): 4.7 (2.7, 8.3)
- Average Time to Relapse ([1]; Interim Analysis Population, KM estimates): 139 days
- CGI-I outcome in the majority of patients ([1]; Relapse Prevention Phase): showed improvement
- adjusted mean CGI-I score ([1]; Relapse Prevention Phase, LOCF): 3.3
- adjusted mean change from randomization baseline at endpoint in PANSS total score ([1]; Relapse Prevention Phase, LOCF): 2.3 points
- mean improvement on the PANSS total score ([1]; during Titration and Stabilization Phase, patients randomized in the IA (N=195)): −19.5±10.1 points
- time to relapse compared with placebo (FIG. 2) ([1]; interim analysis population, Kaplan-Meier): statistically significant longer time to relapse
- estimated relapse rate at the end of the double-blind relapse prevention phase (KM est.) ([1]; interim analysis, flexible dose 8-24 mg/day): 20.4%
- TEAE incidence: Dizziness [2, 3]: 4 (2.6) n (%)
- TEAE incidence: Dry Mouth [2, 3]: 0 n (%)
- TEAE incidence: Headache [2, 3]: 3 (2.0) n (%)
- TEAE incidence: Insomnia [2, 3]: 3 (2.0) n (%)
- TEAE incidence: Nausea [2, 3]: 2 (1.3) n (%)
- TEAE incidence: Schizophrenia [2, 3]: 3 (2.0) n (%)
- TEAE incidence: Somnolence [2, 3]: 2 (1.3) n (%)
- TEAE incidence: Weight increased [2, 3]: 2 (1.3) n (%)
- Patients with at least 1 TEAE [2, 3]: 60 (39.7) n (%)
- changes in AIMS scores ([2]; Relapse Prevention Phase): No clinically meaningful changes
- mean change from baseline in QTcF ([2]; Relapse Prevention Phase): 4.9 ms
- most common SAE: schizophrenia ([2]; Relapse Prevention Phase): 1.3%
- patients discontinued due to TEAEs ([2]; Relapse Prevention Phase): 6%
- patients reporting akathisia as TEAE ([2]; Relapse Prevention Phase): 1%
- patients reporting extrapyramidal disorder as TEAE ([2]; Relapse Prevention Phase): 1%
- patients who experienced a SAE ([2]; Relapse Prevention Phase): 4%
- patients who experienced a TEAE ([2]; Relapse Prevention Phase): 40%
- patients in whom akathisia was absent (BAS) ([2]; Relapse Prevention Phase, at completion): 95%
- mean change from baseline in weight [2, 4]: 0.02 kg
- patients with ≥7% increase in weight from baseline [2, 4]: 38%
- waist circumference versus placebo [2, 4]: no notable differences
- Primary Reason for Discontinuation: Abnormal Laboratory Value(s) ([2]; Relapse Prevention Phase): 3 (13) n (%)
- Primary Reason for Discontinuation: Abnormal Test Procedure Result(s) ([2]; Relapse Prevention Phase): 1 (4) n (%)
- Primary Reason for Discontinuation: Adverse Event(s) ([2]; Relapse Prevention Phase): 3 (13) n (%)
- Primary Reason for Discontinuation: Death ([2]; Relapse Prevention Phase): 1 (4) n (%)
- changes in Abnormal Involuntary Movement Scale (AIMS) scores [2, 5]: No clinically meaningful changes
- discontinuation due to TEAE: QT prolongation [2, 5]: 1.1%
- discontinuation due to TEAE: dizziness [2, 5]: 1.4%
- discontinuation due to TEAE: schizophrenia [2, 5]: 1.9%
- mean change from baseline in QTcF [2, 5]: 6.4 ms
- most common SAE: schizophrenia [2, 5]: 1.4%
- patients discontinued due to TEAEs [2, 5]: 15%
- patients reporting akathisia as TEAE [2, 5]: 4%
- patients reporting extrapyramidal disorder as TEAE [2, 5]: 3%
- patients who experienced a SAE [2, 5]: 4%
- patients who experienced a Treatment-Emergent Adverse Event (TEAE) [2, 5]: 69%
- patients who died while receiving iloperidone ([2]; Titration and Stabilization Phase, one patient, alcohol poisoning): 0.2%
- TEAE incidence: Dizziness [2, 6]: 73 (11.6) n (%)
- TEAE incidence: Dry Mouth [2, 6]: 43 (6.8) n (%)
- TEAE incidence: Headache [2, 6]: 40 (6.4) n (%)
- TEAE incidence: Insomnia [2, 6]: 35 (5.6) n (%)
- TEAE incidence: Nausea [2, 6]: 32 (5.1) n (%)
- TEAE incidence: Schizophrenia [2, 6]: 15 (2.4) n (%)
- TEAE incidence: Somnolence [2, 6]: 52 (8.3) n (%)
- TEAE incidence: Weight increased [2, 6]: 34 (5.4) n (%)
- Patients with at least 1 TEAE [2, 6]: 433 (68.8) n (%)
- Primary Reason for Discontinuation: Abnormal Laboratory Value(s) ([2]; Titration/Stabilization Phase): 19 (8) n (%)
- Primary Reason for Discontinuation: Abnormal Test Procedure Result(s) ([2]; Titration/Stabilization Phase): 5 (2) n (%)
- Primary Reason for Discontinuation: Adverse Event(s) ([2]; Titration/Stabilization Phase): 80 (32) n (%)
- Primary Reason for Discontinuation: Death ([2]; Titration/Stabilization Phase): 1 (<1) n (%)
- mean change from baseline in weight [2, 7]: 0.5 kg
- patients in whom akathisia was absent (Barnes Akathisia Scale) [2, 7]: 97%
- patients with ≥7% increase in weight from baseline [2, 7]: 17%
- QTcF prolongation in relation to dose/exposure ([2]; longer-term trial, higher exposures associated with more QT prolongation): dose-dependent
- adverse events during maintenance period ([2]; patients administered 16 mg/day or less): reduction in adverse events
- most common adverse events suspected to be related to iloperidone ([2]; stabilization phase): dizziness, somnolence and dry mouth
- patients with elevations in LDL ([2]; versus none on placebo): 2.6%
- patients with elevations in blood urea nitrogen (BUN) ([2]; versus none on placebo): 4.5%
